Publication PMC6662683, “Identification of the Catechin Uptake Transporter Responsible for Intestinal Absorption of Epigallocatechin Gallate in Mice” (Scientific Reports, 2019)

T1: diastrophic dysplasia sulfate transporter (DTDST) (Mus musculus, UniProt Q62273)
T1 construct: gene Slc26a2; full open reading frame from mouse ileal epithelial cDNA, C-terminal FLAG tag, stably expressed in CHO-K1 cells (pcDNA3.1(+))
T1 sequence (Q62273 1-739): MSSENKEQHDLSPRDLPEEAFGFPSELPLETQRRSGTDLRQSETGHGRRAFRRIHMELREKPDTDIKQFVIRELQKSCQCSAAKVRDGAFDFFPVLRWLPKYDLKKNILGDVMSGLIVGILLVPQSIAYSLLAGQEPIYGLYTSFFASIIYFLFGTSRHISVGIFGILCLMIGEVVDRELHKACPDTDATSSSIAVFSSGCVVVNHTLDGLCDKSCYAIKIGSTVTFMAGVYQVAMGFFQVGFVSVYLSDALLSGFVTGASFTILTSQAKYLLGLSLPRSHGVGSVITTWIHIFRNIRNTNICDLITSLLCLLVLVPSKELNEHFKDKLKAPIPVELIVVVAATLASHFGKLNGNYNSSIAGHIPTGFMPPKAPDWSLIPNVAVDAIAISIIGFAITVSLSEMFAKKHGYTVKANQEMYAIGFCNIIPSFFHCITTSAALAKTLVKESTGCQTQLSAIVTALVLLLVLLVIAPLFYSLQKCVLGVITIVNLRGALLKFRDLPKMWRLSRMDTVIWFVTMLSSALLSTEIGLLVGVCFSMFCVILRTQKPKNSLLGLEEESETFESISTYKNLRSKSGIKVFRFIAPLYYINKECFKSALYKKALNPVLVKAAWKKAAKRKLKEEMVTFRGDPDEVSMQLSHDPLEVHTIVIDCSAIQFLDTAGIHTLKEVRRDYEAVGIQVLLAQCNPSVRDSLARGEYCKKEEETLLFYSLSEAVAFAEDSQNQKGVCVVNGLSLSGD

B1: diastrophic dysplasia sulfate transporter (DTDST) (Mus musculus) (protein)
chain: T1 sequence (Q62273 1-739)
notes: full open reading frame from mouse ileal epithelial cDNA, C-terminal FLAG tag, stably expressed in CHO-K1 cells (pcDNA3.1(+))

Experiments:
[1] = target: T1, diastrophic dysplasia sulfate transporter (DTDST); assay: inhibition of EGCg uptake into stably expressing CHO-K1 cells, LC-MS/MS; type: cell-based; details: 100 μM DIDS 1 h before EGCg; 500 μM EGCg, 30 min (Figure 4 legend; methods give 100 μM EGCg); pH 6.0, 37 °C
[2] = substrate: O=C(O[C@@H]1Cc2c(O)cc(O)cc2O[C@@H]1c1cc(O)c(O)c(O)c1)c1cc(O)c(O)c(O)c1; assay: EGCg uptake into stably expressing CHO-K1 cells, mock subtracted, LC-MS/MS; type: cell-based, Mus musculus; details: Hanks' balanced salt solution pH 6.0, 37 °C, 30 min, 1-1000 μM EGCg

Molecule	inhibition of EGCg uptake into stably expressing CHO-K1 cells, LC-MS/MS [1]	Km [2] [µM]
O=S(=O)(O)c1cc(N=C=S)ccc1/C=C/c1ccc(N=C=S)cc1S(=O)(=O)O [4,4′-diisothiocyano-2,2′-stilbenedisulfonic acid]	compared with mock cells was nullified in the presence of the DTDST inhibitor DIDS	
B1		576 ± 244
